# Data as given in patent US11415579B2, “Assay for measuring a rate of reaction between a target and a ligand candidate” (Imperial College Innovations Ltd., priority 2016, dated 2022).
# Experiments:
# Cdk2(S181C) (C177A) = molecular target: T1, Cdk2(S181C) (C177A) (Homo sapiens, UniProt P24941, C177A/S181C); test: Kinetic thiol consumption assay with Cdk2 mutant S181C; type: binding; parameters: key to Rate enhancement, Cdk2 S181C: rate constant with Cdk2 ÷ rate constant with model thiol (fold); conditions: additional mutation C177A; for Rate constant with Cdk2 S181C: Protein: Cdk2, cysteine position S181C, in h^-1
# T1 construct: poly-histidine; made in house; host or cells: E. coli
# Summary of the method: (§1)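 Thiol consumption was monitored kinetically using 5 μM Cdk2 (C177A plus one introduced cysteine) in degassed phosphate buffer at pH 8 with TCEP beads. Plates were kept 1 h at room temperature before fluorescence reading, and rate constants came from exponential decay fitting.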
# Cdk2(T182C) (C177A) = molecular target: T2, Cdk2(T182C) (C177A) (Homo sapiens, UniProt P24941, C177A/T182C); test: Kinetic thiol consumption assay with Cdk2 mutant T182C; type: binding; parameters: key to Rate enhancement, Cdk2 T182C: rate constant with Cdk2 ÷ rate constant with model thiol (fold); conditions: additional mutation C177A; for Rate constant with Cdk2 T182C: Protein: Cdk2, cysteine position T182C, in h^-1
# T2 construct: poly-histidine; made in house; host or cells: E. coli
# Summary of the method: as §1
# [1] = molecular target: T3, human cyclin-dependent kinase 2 (Cdk2) (Homo sapiens, UniProt P24941); test: Kinetic thiol consumption assay with wild type Cdk2 (C177); type: binding; parameters: key to Rate enhancement, Cdk2 WT: k(Cdk2) divided by k(model thiol); Rate constant with Cdk2 (k(Cdk2)): unit not given here; conditions: for Rate constant with Cdk2 (k(Cdk2)): 500 μM ligand, 5 μM thiol, phosphate buffer pH 8; for Rate enhancement, Cdk2 WT: no additional mutations; for Rate constant with Cdk2 WT: Protein: Cdk2, cysteine position WT, in h^-1; for k(Cdk2)/k(Cdk2_mut) rate enhancement: model thiol Cdk2[C177A, F80C, K278C]; for k(Cdk2)/k(GSH) rate enhancement: model thiol glutathione
# T3 construct: poly-histidine; made in house; host or cells: E. coli
# Summary of the method: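 Rate constants came from first-order exponential decay fits of normalized fluorescence against time, with thiol (5 μM) in degassed pH 8 phosphate buffer containing 2% v/v TCEP beads and reads after 1 h at room temperature.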
# [2] = Kinetic thiol consumption assay with model thiol glutathione; type: physicochemical; parameters: Rate constant with glutathione (k(GSH)): unit not given here; conditions: for Rate constant with glutathione (k(GSH)): 500 μM ligand, 5 μM thiol, phosphate buffer pH 8; for Rate constant with Glutathione: Protein: Glutathione, cysteine position NA, in h-1
# Summary of the method: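 First, 5 μM glutathione in degassed phosphate buffer (pH 8) receives immobilized TCEP beads (2% v/v). Then acrylamide is added and plates incubate 1 h at room temperature. Finally, fluorescence (380/470 nm) is normalized and fitted to first-order decay for rate constants.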
# Cdk2(N272C) (C177A) = molecular target: T4, Cdk2(N272C) (C177A) (Homo sapiens, UniProt P24941, C177A/N272C); test: Kinetic thiol consumption assay with Cdk2 mutant N272C; type: binding; parameters: key to Rate enhancement, Cdk2 N272: rate constant with Cdk2 ÷ rate constant with model thiol (fold); conditions: for Rate enhancement, Cdk2 N272: Cdk2 N272, additional mutation C177A; for Rate constant with Cdk2 N272C: Protein: Cdk2, cysteine position N272C, additional mutation C177A, in h^-1
# T4 construct: poly-histidine; made in house; host or cells: E. coli
# Summary of the method: as §1
# Cdk2(C177A, F80C) = molecular target: T5, Cdk2(C177A, F80C) (Homo sapiens, UniProt P24941, C177A/F80C); test: Kinetic thiol consumption assay with Cdk2 mutant F80C, incl. kobs versus concentration (Kd, k2); type: binding; parameters: key to Rate enhancement, Cdk2 F80C: Cdk2 rate constant divided by model-thiol rate constant; conditions: additional mutation C177A; for Rate constant with Cdk2 F80C: Protein: Cdk2, cysteine position F80C, in h^-1
# T5 construct: poly-histidine; made in house; host or cells: E. coli
# Summary of the method: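 His-tagged Cdk2(C177A/F80C) from E. coli or model thiol, 5 μM in degassed phosphate buffer pH 8 with TCEP beads, reacted with acrylamide ligands; fluorescence (ex/em 380/470 nm) normalized to DMSO control and fitted to first-order decay for kobs. Kd and k2 obtained from hyperbolic fit of kobs versus ligand concentration.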
# Cdk2(R122C) (C177A) = molecular target: T6, Cdk2(R122C) (C177A) (Homo sapiens, UniProt P24941, C177A/R122C); test: Kinetic thiol consumption assay with Cdk2 mutant R122C; type: binding; parameters: key to Rate enhancement, Cdk2 R122C: rate constant with Cdk2 ÷ rate constant with model thiol (fold); conditions: additional mutation C177A; for Rate constant with Cdk2 R122C: Protein: Cdk2, cysteine position R122C, in h-1
# T6 construct: poly-histidine; made in house; host or cells: E. coli
# Summary of the method: as §1
# Cdk2(S276C) (C177A) = molecular target: T7, Cdk2(S276C) (C177A) (Homo sapiens, UniProt P24941, C177A/S276C); test: Kinetic thiol consumption assay with Cdk2 mutant S276C; type: binding; parameters: key to Rate enhancement, Cdk2 S276C: rate constant with Cdk2 ÷ rate constant with model thiol (fold); conditions: additional mutation C177A; for Rate constant with Cdk2 S276C: Protein: Cdk2, cysteine position S276C, in h^-1
# T7 construct: poly-histidine; made in house; host or cells: E. coli
# Summary of the method: as §1
# Cdk2(H71C) (C177A) = molecular target: T8, Cdk2(H71C) (C177A) (Homo sapiens, UniProt P24941, C177A/H71C); test: Kinetic thiol consumption assay with Cdk2 mutant H71C; type: binding; parameters: key to Rate enhancement, Cdk2 H71C: rate constant with Cdk2 ÷ rate constant with model thiol (fold); conditions: additional mutation C177A; for Rate constant with Cdk2 H71C: Protein: Cdk2, cysteine position H71C, in h^-1
# T8 construct: poly-histidine; made in house; host or cells: E. coli
# Summary of the method: as §1
# Cdk2[C177A, F80C, K278C] = molecular target: T9, Cdk2[C177A, F80C, K278C] (Homo sapiens, UniProt P24941, C177A/F80C/K278C); test: Kinetic thiol consumption assay with mutant Cdk2 as model thiol; type: binding; parameters: unit not given here; conditions: 500 μM ligand, 5 μM thiol, phosphate buffer pH 8
# T9 construct: poly-histidine; made in house; host or cells: E. coli
# Summary of the method: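 First-order rate constants were derived by exponential-decay fitting of DMSO/thiol-normalized fluorescence (380/470 nm) over time at room temperature. Thiol was 5 μM E. coli-expressed His-tagged Cdk2 mutant C177A/F80C/K278C in degassed pH 8 phosphate buffer containing 2% v/v TCEP beads.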
Structure (SMILES),"Rate enhancement, Cdk2 S181C (Cdk2(S181C) (C177A))","Rate enhancement, Cdk2 T182C (Cdk2(T182C) (C177A))",Rate constant with Cdk2 (k(Cdk2)) [1],"Rate enhancement, Cdk2 WT [1]",Rate constant with Cdk2 WT [1],k(Cdk2)/k(Cdk2_mut) rate enhancement [1],k(Cdk2)/k(GSH) rate enhancement [1],Rate constant with glutathione (k(GSH)) [2],Rate constant with Glutathione [2],"Rate enhancement, Cdk2 N272 (Cdk2(N272C) (C177A))","Rate enhancement, Cdk2 F80C (Cdk2(C177A, F80C))","Rate constant with Cdk2 F80C (Cdk2(C177A, F80C))","Rate enhancement, Cdk2 R122C (Cdk2(R122C) (C177A))","Rate enhancement, Cdk2 S276C (Cdk2(S276C) (C177A))","Rate enhancement, Cdk2 H71C (Cdk2(H71C) (C177A))","Rate constant with Cdk2[C177A, F80C, K278C] (k(Cdk2_mut)) (Cdk2[C177A, F80C, K278C])",Rate constant with Cdk2 S181C (Cdk2(S181C) (C177A)),Rate constant with Cdk2 T182C (Cdk2(T182C) (C177A)),Rate constant with Cdk2 N272C (Cdk2(N272C) (C177A)),Rate constant with Cdk2 R122C (Cdk2(R122C) (C177A)),other results
C=CC(=O)N1C(=O)CC(c2ccccc2)N(C(=O)C=C)c2ccccc21 (stereo not shown) [CA-165-1],0,0,0.3945,1.092,5.676,0.3473,0.8877,0.4444,5.198,0,0.661,3.436,0,0,0,1.136,–,–,–,–,–
C=CC(=O)N1CC2CC2C1 (stereo not shown) [CA-211],2.498,2.18,0.00368,0.3928,0.003681,2.144,0.6839,0.00538,0.00937,2.443,0.2496,0.002339,0.3837,0.4691,0,0.00172,0.02341,0.02043,0.02289,0.003595,Rate constant with Cdk2 S276C (Cdk2(S276C) (C177A)): 0.004395
C=CC(=O)N(CC(=O)NC1CC1)C1CC1 [CA-031],0.5614,1.063,0.00688,0.1766,0.003072,1.479,0.4081,0.01687,0.0174,1.169,0.02876,0.0005005,0.221,0.5294,0,0.00466,0.009769,0.01849,0.02034,0.003846,Rate constant with Cdk2 S276C (Cdk2(S276C) (C177A)): 0.009212
C=CC(=O)NCc1ccccc1 [CA-009],0.4707,21.57,0.00446,2.404,0.01679,1.108,–,–,0.006985,1.318,0.5029,0.003513,0.5794,0.8186,0.2836,0.00402,0.003288,0.1507,0.009206,0.004047,Rate constant with Cdk2 S276C (Cdk2(S276C) (C177A)): 0.005718; Rate constant with Cdk2 H71C (Cdk2(H71C) (C177A)): 0.001981
C=CC(=O)N1CCCC(N2C(=O)CC3(CCCC3)C2=O)C1 (stereo not shown) [CA-236],0.2301,1.042,0.00116,0.1258,0.001156,0.2924,0.2286,0.00506,0.009189,0.09859,0.4074,0.003744,0.2009,0.0707,0.1903,0.00395,0.002114,0.009576,0.0009059,0.001846,Rate constant with Cdk2 S276C (Cdk2(S276C) (C177A)): 0.0006497; Rate constant with Cdk2 H71C (Cdk2(H71C) (C177A)): 0.001749
C=CC(=O)N(Cc1ccc2c(c1)CCO2)C1CCCC1 [CA-184],10.57,11.73,0.2235,7.607,0.2235,3.034,12.04,0.01856,0.02938,7.192,2.208,0.06488,0.7583,20.94,7.662,0.07366,0.3106,0.3446,0.2113,0.02228,"hit classification, Example 1 ([1]; hits defined as kCdk2/kGSH>5.8 (3 standard deviations over the mean)): hit fragments; Rate constant with Cdk2 S276C (Cdk2(S276C) (C177A)): 0.6153; Rate constant with Cdk2 H71C (Cdk2(H71C) (C177A)): 0.2251"
C=CC(=O)N1CC(OCc2cccc3ccccc23)C1 [CA-203],8.879,13.92,0.04586,3.338,0.04586,0.5803,3.318,0.01382,0.01374,2.758,4.306,0.05916,3.287,3.934,3.672,0.07903,0.122,0.1913,0.0379,0.04516,Rate constant with Cdk2 S276C (Cdk2(S276C) (C177A)): 0.05406; Rate constant with Cdk2 H71C (Cdk2(H71C) (C177A)): 0.05046
